In one series the target is T1, human CaSR (Homo sapiens, UniProt P41180).
T1 construct: The ORF coding for the human CaSR (genebank: NM_000388)
T1 sequence (P41180 20-1078): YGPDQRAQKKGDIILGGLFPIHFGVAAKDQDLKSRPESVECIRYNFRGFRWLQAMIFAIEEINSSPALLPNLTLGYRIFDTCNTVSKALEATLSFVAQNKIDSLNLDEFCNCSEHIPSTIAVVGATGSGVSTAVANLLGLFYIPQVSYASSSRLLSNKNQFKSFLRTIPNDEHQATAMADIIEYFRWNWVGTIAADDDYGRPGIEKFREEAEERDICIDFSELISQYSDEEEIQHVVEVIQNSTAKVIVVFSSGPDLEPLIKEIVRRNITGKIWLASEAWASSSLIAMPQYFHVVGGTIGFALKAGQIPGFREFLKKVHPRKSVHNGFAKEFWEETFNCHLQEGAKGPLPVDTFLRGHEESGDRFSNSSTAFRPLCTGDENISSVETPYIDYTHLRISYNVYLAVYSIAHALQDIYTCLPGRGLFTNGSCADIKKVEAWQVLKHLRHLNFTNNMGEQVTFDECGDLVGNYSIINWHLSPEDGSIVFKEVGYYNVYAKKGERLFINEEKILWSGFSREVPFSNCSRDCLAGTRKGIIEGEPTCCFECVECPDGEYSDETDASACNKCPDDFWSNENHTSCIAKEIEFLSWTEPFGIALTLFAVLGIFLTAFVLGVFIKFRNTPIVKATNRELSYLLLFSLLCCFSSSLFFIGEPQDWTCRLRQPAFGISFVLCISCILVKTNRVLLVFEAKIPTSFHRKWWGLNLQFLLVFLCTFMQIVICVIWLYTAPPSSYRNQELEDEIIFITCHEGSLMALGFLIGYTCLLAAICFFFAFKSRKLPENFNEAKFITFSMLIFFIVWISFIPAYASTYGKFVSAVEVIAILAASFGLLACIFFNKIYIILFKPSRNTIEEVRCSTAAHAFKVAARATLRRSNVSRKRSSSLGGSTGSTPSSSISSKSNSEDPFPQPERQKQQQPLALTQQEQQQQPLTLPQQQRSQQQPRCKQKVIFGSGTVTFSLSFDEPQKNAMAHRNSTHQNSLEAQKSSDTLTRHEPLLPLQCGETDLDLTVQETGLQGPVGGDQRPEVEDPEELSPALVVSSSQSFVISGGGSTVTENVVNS
Nature of the series: Functional whole cell assay (modulation of human CaSR), IP1 accumulation in CHO-K1 cells. Type of series: cell-based. To be noted: CHO-K1 cells stably expressing human CaSR, final Ca2+ 1.9 mM, IP1 readout; concentration giving 50% of maximum agonistic response. The source says:
The assay investigates a compound's functional ability to act as a biological positive modulator on the human CaSR. Activation of the receptor expressed on CHO-K1 cells is detected through the G alpha q pathway, the activation of phospholipase C and the accumulation of intracellular inositol phosphate (IP) as described earlier [Sandrine Ferry, Bruno Chatel, Robert H. Dodd, Christine Lair, Danielle Gully, Jean-Pierre Maffrand, and Martial Ruat. Effects of Divalent Cations and of a Calcimimetic on Adrenocorticotropic Hormone Release in Pituitary Tumor Cells. Biochemical and biophysical research Communications 238, 866-873 (1997)]. The human CaSR is stably expressed on a CHO-K1 cell clone, stimulated with a basal level of calcium and challenged with the tested compound. The level of IP1 is determined using the IP-One Terbium htrf kit (Cisbio, France). CHO-K1 cells not transfected with the CaSR fail to elicit an IP1 response upon calcium and/or compound stimulation.
The ORF coding for the human CaSR (genebank: NM_000388) was acquired from Invitrogen Corp, USA and subsequently cloned into the mammalian expression vector pCDA3.1.
CHO-K1 cells were transfected using Lipofectamine according to manufacturer's protocol (400.000 cells/well were seeded in a 6-well plate and transfected after 24 hours using 2 μg DNA and 5 μl lipofectamine). After another 24 hours the cells were detached, seeded and subjected to 1 mg/ml of G-418. Following 7 days growth single clones were picked, the CaSR expression evaluated using the 5C10 antibody against CaSR, the clones with the highest expression were selected and tested for functional response. The preferred clone was cultured according to standard procedures described in ATCC (American Type Culture Collection) protocols for CHO-K1 with the addition of 500 μg/ml G-418.
On the assay day, cells were thawed, harvested and resuspended to 4*10^6 cells/ml in stimulation buffer (containing: Hepes 10 mM, MgCl2 0.5 mM, KCl 4.2 mM, NaCl 146 mM, glucose 5.5 mM, LiCl 50 mM, BSA 0.5% at pH 7.4). Ten μl cell solution was pipetted into wells of a white 384-well plate (Perkin Elmer Optiplate) containing 2 μl compound diluted in assay buffer (containing: Hepes 10 mM, MgCl2 0.5 mM, KCl 4.2 mM, NaCl 146 mM, glucose 5.5 mM, LiCl 50 mM, CaCl2 11.4 mM at pH 7.4), resulting in a final Ca^2+ concentration of 1.9 mM. After compound stimulation for 1 hour at 37° C. and 15 min at room temperature, 10 ul of IP-One assay detection reagent (prepared as described by the IP-One assay kit manufacturer) was added and the plate was incubated for another 1 hour at room temperature. Finally the plate was read using a Perkin Elmer EnVision, according to the protocol supplied by the IP-One assay kit manufacturer. The FRET ratio was calculated by dividing the 665 nm emission signal with that of the 615 nm.
The molar concentration of a compound that produces 50% of the maximum agonistic response (the […] value) is calculated according to the equation “General sigmoidal curve with Hill slope, a to d” (Equation 1). This model describes a sigmoidal curve with an adjustable baseline. The equation can be used to fit curves where response is either increasing or decreasing with respect to the independent variable, X.
y=(a−d)/(1+(x/c)̂b)+d Equation 1.
x=concentration of tested compound y=response (%) a=min response as compound concentration approaches 0 d=max response as concentration of tested compound is increasing c=IC50 for the curve b=Hill coefficient or curve slope

Series [1] is described as follows: Clearance in human liver microsomes. To be noted: hepatic extraction ratio; 0.5 μM compound, 0.5 mg/mL microsomes, 1 mM NADPH, 30 min. Type of series: in vitro ADME. As for the experimental part: Test compound concentration is 0.5 μM, microsome concentration is 0.5 mg/mL and NADPH concentration is 1 mM in the incubation. The described method is performed by the liquid handling system Tecan RSP and is based on a 96-well format.
Control incubations with test compound without NADPH and test compound without microsomes are conducted to investigate non-CYP mediated metabolism and stability in phosphate buffer at 37° C., respectively.
The human liver microsomal suspension in phosphate buffer is mixed with NADPH. The mixture is pre-heated (7 min) to 37° C. Test compound is added, and the mixture is incubated for 30 minutes. Incubations are run in duplicate. Samples are withdrawn at predetermined stop times and mixed with methanol containing internal standard (IS) to terminate all enzyme activity and precipitate proteins. A control without NADPH (to detect problems such as nonspecific protein binding, heat instability or non-CYP mediated metabolism) and a control without microsomes (for assessing compound stability in the absence of any active enzymes) are tested.
The percentage of organic solvent in the incubations is less than 1%. Careful inspections of reagents are performed prior to the start of any experiment to ensure all reagents are in solution.
The 96-well plates are centrifuged. Test compound depletion, using a compound specific LC/MS/MS method, is determined.
The logarithm of the peak area ratios of test compound to internal standard (IS) versus incubation time is plotted in a graph.
The rate constant (k) (min^−1) of test compound depletion is calculated from the linear part of the curve and the half-time (t1/2) in minutes can be calculated from the rate constant (Eq. 2).
Intrinsic clearance (Clint) (mL/min/mg protein) is calculated from: […]
where c is the microsomal protein concentration in mg/mL.
Intrinsic clearance is the maximum ability of the liver to extract a drug in the absence of blood flow restrictions.
Conversion to apparent clearance (Clapp) (mL/min/kg) is done by Eq. 4:
Clapp=Clint×a×b/d (Eq. 4)
where a, b and d are the scaling factors for normalizing Clint to human body weight.
The following human scaling factors are used:
a: 45 (microsomal protein/liver weight (mg/g)) b: 1500 (liver weight (g)) d: 70 (body weight (kg))
Hepatic clearance (Clh) (mL/min/kg) based on the well-stirred model is described as followed:
Clh=(Clapp·Q)/(Clapp+Q) (Eq. 5)
where Q is the liver blood flow in mL/min/kg (20 in humans).
Dividing hepatic clearance with liver blood flow, the hepatic extraction ratio (%) can be calculated:
Apparent clearance below approximately 10 mL/min/kg human body weight (corresponding to extraction ratio of approx. 33%) is considered as low clearance (high metabolic stability). Apparent intrinsic clearance above approximately 60 mL/min/kg human body weight (corresponding to extraction ratio of approx. 75%) is considered as high clearance (low metabolic stability).
On the technique in general: Liver microsomes are vesicles of endoplasmic reticulum, rich in cytochrome P450 enzymes.

Experimental findings from patent US20130267516A1, “SUBSTITUTED CYCLOPENTYL-AZINES AS CASR-ACTIVE COMPOUNDS” (LEO PHARMA A/S, priority 2010, published 2013) are described below.

For the molecule `C[C@@H](N[C@H]1CC[C@@H](c2ccc(NCCS(N)(=O)=O)nc2)C1)c1cccc(Cl)c1` [Compound 121, 2-[[5-[(1R,3S)-3-[[(1R)-1-(3-Chlorophenyl)ethyl]amino]cyclopentyl]-2-pyridyl]amino]ethanesulfonamide], the EC50 – broadly, the concentration giving half of the maximal effect – on human CaSR lay within 200 to 1000 nM. Moreover, the “Clearance (% Eh) in human liver microsomes” value (shortened to “Clearance (% Eh)”) in series [1] is listed as “A (A: Eh < 33%)”.
With `COc1cc([C@@H](C)N[C@H]2CC[C@@H](c3cnc(NCCNS(C)(=O)=O)nc3)C2)ccc1F` [Compound 123, N-[2-[[5-[(1R,3S)-3-[[(1R)-1-(4-Fluoro-3-methoxy-phenyl)ethyl]amino]cyclopentyl]pyrimidin-2-yl]amino]ethyl]methanesulfonamide], at human CaSR, the concentration for a half-maximal effect (EC50) lay within 200 to 1000 nM. For the same molecule, in series [1], the “Clearance (% Eh)” value is listed as “A (A: Eh < 33%)”.
The corresponding values for `C[C@@H](N[C@H]1CC[C@@H](c2ccc(NCCS(N)(=O)=O)nc2)C1)c1cccc2c1OCO2` [Compound 114, 2-[[5-[(1R,3S)-3-[[(1R)-1-(1,3-Benzodioxol-4-yl)ethyl]amino]cyclopentyl]-2-pyridyl]amino]ethanesulfonamide] are 200 to 1000 nM and “A (A: Eh < 33%)”.
On human CaSR, `CCOc1cccc([C@@H](C)N[C@H]2CC[C@@H](c3ccc(N4CCNC(=O)C4)nc3)C2)c1` [Compound 117, 4-[5-[(1R,3S)-3-[[(1R)-1-(3-Ethoxyphenyl)ethyl]amino]cyclopentyl]-2-pyridyl]piperazin-2-one] came in with an EC50 of 200 to 1000 nM. Besides, the “Clearance (% Eh)” value in series [1] is listed as “A (A: Eh < 33%)”.
